In patent US20200390767A1, “Formulations of 4-(7-Hydroxy-2-isopropyl-4-oxo-4H-quinazolin-3-yl)-benzonitrile” (NOVARTIS AG, priority 2019, published 2020):
Several values for one entry are separate records, joined by “and”; a condition that tells them apart may be missing. Identical values can stand only once. Like-named read-outs stand apart in the source and are kept apart here.

Assays:
[1] = Pharmacokinetic study of exploratory formulations, single bilateral topical ocular dosing; format: in vivo; settings: NZW rabbits
Description: A pharmacokinetics study was conducted to determine the ocular uptake of compound I following single bilateral topical ocular dosing of male NZW rabbits with the four exploratory formulations provided in Table 2: FID 121522, FID 121511, FID 121512, FID 121513.

healthy volunteers = test: First in human study, safety (SAD and MAD adverse events); format: in vivo; settings: 8 times daily for 7 days
Description: This example describes a first-in-human study of compound I conducted in healthy volunteers. A total of 54 subjects were administered to study medication. Part 1 of the first in human study administered single ascending doses of 0.15%, 1.5%, 2.5% w/v (1 drop) of compound I in an eye drop.
Part 2 tested multiple ascending doses (MAD) of compound I, administering (i) 1 drop of 0.15%, 1.5%, 2.5%, 4 times daily (every 6 hours) for 7 days or (ii) 1 drop of 2.5%, 8 times daily (every 3 hours) for 7 days (supra-therapeutic dose) as eye drops.
Safety assessments: Safety assessments consisted of collecting all adverse events (AEs), serious adverse events (SAEs), including systemic and ocular adverse events, along with their severity and relationship to study drug. Systemic safety assessments included regular monitoring of hematology, blood chemistry and urinalysis performed at study center and regular assessments of physical examination, vital signs (systolic and diastolic blood pressure, pulse rate, and body temperature), ECG, pregnancy and assessments of fertility and hand immersion test at 49° C. during MAD part. Ocular safety assessments included early treatment diabetic retinopathy study (ETDRS) visual acuity, intraocular pressure, slit-lamp biomicroscopy, corneal staining and dilated fundus exam. […]

temperature sensitivity = test: First in human study, hand immersion test at 49° C.; format: in vivo; settings: water at 49° C., MAD part
Description: Safety assessments: Safety assessments consisted of collecting all adverse events (AEs), serious adverse events (SAEs), including systemic and ocular adverse events, along with their severity and relationship to study drug. Systemic safety assessments included regular monitoring of hematology, blood chemistry and urinalysis performed at study center and regular assessments of physical examination, vital signs (systolic and diastolic blood pressure, pulse rate, and body temperature), ECG, pregnancy and assessments of fertility and hand immersion test at 49° C. during MAD part. Ocular safety assessments included early treatment diabetic retinopathy study (ETDRS) visual acuity, intraocular pressure, slit-lamp biomicroscopy, corneal staining and dilated fundus exam.
For the hand immersion test, all subjects in the treatment cohorts withdrew their hand from water at 49° C. at a time interval between 0 to ≤50 secs.

[2] = PRK clinical study, residual compound I in bandage contact lens; format: in vivo, human; settings: Day 4; for concentration at 4 day: human, bandage contact lens extract, topical, 0.925 mg, 0.55 mL extraction fluid
Description: Compound I was quantified in plasma using a validated LC-MS/MS method; the lower limit of quantification (LLOQ) was 0.05 ng/mL. Concentrations were expressed in ng per mL units. When feasible, bandage contact lenses (BCL) exposed to study drug were collected and analyzed for residual drug exposure after treatment (LLOQ: 5.00 ng/mL in 0.55 mL of extraction fluid, or 2.75 ng/BCL). Concentrations below the LLOQ were reported as “zero” and missing data were labeled as such.
Bandage Contact Lens (BCL) was collected from 40 patients on Day 4 of the dose administration and analyzed for compound I. Values from the three IMP non-compliant patients were excluded from BCL summary statistics, leaving 37 values evaluable, including one value from a patient without available plasma PK. The mean concentration of compound I (CV %) in 0.55 mL extraction fluid was 8500 ng/mL (73.1%), with a wide range of 284 to 22600 ng/mL. These concentrations translate to an estimated mean of 4680 ng/lens (0.55 mL×8500 ng/mL), and a range of 156 to 12400 ng/lens. The amount in BCL was very small in relation to the 0.925 mg dose of compound I administered: mean 0.51%, and range of 0.017% to 1.3% of dose.

epithelial wound = test: PRK clinical study, size of epithelial defect by slit lamp exam; format: in vivo, human
Text: Adverse events and serious adverse events included an assessment of both systemic and ocular assessments. Systemic safety assessments included regular assessments of height and weight, vital signs, reporting medication errors including misuse/abuse, pregnancy reporting and early phase safety monitoring. The misuse/abuse, pregnancy reporting and early phase safety monitoring were not assessed for the study. Ocular safety assessments included the following: • Best-corrected visual acuity (BCVA) and uncorrected visual acuity (UCVA): Was measured at each visit using an ETDRS visual acuity chart at 4 meters (13 feet) or 1 meter (for patients that cannot read the 4 meter chart). The BCVA scoring was done based on the number of correctly read letters plus 30. If visual acuity was so poor that the patient could not read any of the largest letters at 1 meter, count fingers and hand movement vision and light perception was tested. • Intraocular Pressure (TOP): IOP measurements were conducted with applanation tonometry or Tonopen. • Dilated fundus exam: The dilated fundus examination included ophthalmoscopic assessments of the vitreous, retina/macula/choroid, and optic nerve. Evaluations for retinal tear/detachment, retinal hemorrhage, vitreous hemorrhage density, vitreous haze grading and abnormal findings were done and scored according to grading criteria. • Ocular hyperemia: Conjunctival redness of the bulbar conjunctiva in each eye at the slit lamp according to the McMonnies redness scale was graded. […] By adjusting the calibrated slit beam width and height, the maximum horizontal (wound width) and vertical dimensions (wound height) of the surgical epithelial wound was estimated. The evaluation was performed until wound closure and report of wound size as 0 horizontal and 0 vertical dimensions. • Slit-lamp biomicroscopy: Ocular signs (eyelids/conjunctiva, cornea, lens, and iris/anterior chamber) was assessed in both eyes by slit lamp biomicroscopy according to the grading criteria. • Blink rate: A blink was defined as a bilateral paroxysmal closure of the eyelids (duration <1 second) in the absence of a provoking external stimulus. Each blink assessment lasted for 2 min (or as close to 2 minutes as possible with minimum time 1 minute) and the obtained blink rate was averaged to calculate blink rate in blinks/min. • Tear production (Schirmer's test without anesthesia): The test was performed without anesthetic in both eyes simultaneously. Tear secretion was measured in millimeters of the length of strip wetted by tears. […] The strip was wetted with 1 drop of sterile saline and flicked to remove excess saline. The patient blinked several times to ensure dispersion of the dye throughout the tear film prior to grading on a scale of 0-3 (0=Normal, No staining; 1=Mild, Superficial stippling micropunctate staining; 2=Moderate, Macropunctate staining with some coalescent areas and 3=Severe, Numerous coalescent macropunctate areas and/or patches) for each of 5 zones (central plus 4 quadrants).
Size of epithelial defect by slit lamp exam: In order to assess the rate of wound healing after administration of compound I, the size of the epithelial defect in both compound I and Vehicle treated populations was measured. The elliptical area of epithelial wound size was calculated as follows: Area (mm2)=width×height×pi, from the width and height of the epithelial defect measured at the slit lamp. The difference in epithelial wound area between compound I and Vehicle was not noticeably different at any time point except at Day 2 post-PRK surgery (all p-values for the difference in area was >0.35). On Day 2 (24 hours post-operative), the difference in average epithelial defect area between patients treated with compound I vs. Vehicle was 11.23 mm^2 (p value=0.034). This difference was not clinically significant in the immediate post-operative period. […]

## CC(C)c1nc2cc(O)ccc2c(=O)n1-c1ccc(C#N)cc1 [Compound I, 4-(7-hydroxy-2-isopropyl-4-oxo-4H-quinazolin-3-yl)-benzonitrile]
[1]
  exposure in cornea relative to aqueous humor and iris-ciliary body: approximately 10 times
[1]; male, rabbit, cornea / plasma, topical, read-out: exposure in cornea relative to plasma
  Kp: ~500
Healthy volunteers; 2.5%
  dose limiting adverse events: No dose limiting adverse events were identified
Healthy volunteers; eye drops, healthy volunteers
  Maximum Tolerated Dose (MTD): 2.5%
Temperature sensitivity
  hand immersion time versus vehicle: no meaningful change in immersion time
[2]
  amount in BCL in relation to the 0.925 mg dose, mean: 0.51 % of dose
  estimated mean amount in bandage contact lens: 4680 ng/lens
[2]; read-out: concentration of compound I in bandage contact lens extract, range
  concentration at 4 day: 0.284 to 22.6 µg/mL
[2]; read-out: mean concentration of compound I in bandage contact lens extract
  concentration at 4 day: 8.5 µg/mL
Epithelial wound; Day 1
  Epithelial Wound Size, Area, Difference compound I-Vehicle: 2.98 (27.33) mm^2
  Epithelial Wound Size, Area, raw mean (SD): 220.15 (32.26) mm^2
Epithelial wound; Day 2
  Epithelial Wound Size, Area, Difference compound I-Vehicle: 11.23 mm^2 and 11.23 (32.30) mm^2
  Epithelial Wound Size, Area, raw mean (SD): 83.02 (32.08) mm^2
Epithelial wound; Day 3
  Epithelial Wound Size, Area, Difference compound I-Vehicle: 1.02 (8.78) mm^2
  Epithelial Wound Size, Area, raw mean (SD): 6.75 (12.66) mm^2
Epithelial wound; Day 4
  Epithelial Wound Size, Area, Difference compound I-Vehicle: 0.31 (2.11) mm^2
  Epithelial Wound Size, Area, raw mean (SD): 0.39 (2.04) mm^2
Epithelial wound; Day 8
  Epithelial Wound Size, Area, Difference compound I-Vehicle: 0.00 (0.00) mm^2
  Epithelial Wound Size, Area, raw mean (SD): 0.00 (0.00) mm^2
Epithelial wound; human, in vivo
  wound healing compared to Vehicle: no delay in wound healing
